Reference: US8410138B2, “Compounds for activating TGF-beta signaling” (The Board of Trustees of the Leland Stanford Junior …, priority 2007, dated 2013)
Read-outs that look alike come from different tables or passages of the source.

Assays:
[1] = test system: TGF-β signaling (SBE-SEAP reporter) in MFB-F11 cells; type: cell-based, mouse; conditions: for Relative TGF-β activity, fold change compared with vehicle: cell reporter assay
Experimental: All compounds were tested twice, in duplicate, using the MFB-F11 cell line. 80 compounds were selected for further study based on induction of the reporter gene in any of the replicates. These compounds were tested again in MFB-F11 or C6-H4 cells, either alone or in the presence of 100 pg/ml of TGF-β1, to test for synergistic activities.

[2] = test system: fibroblasts lacking Smad2, Smad3 or Smad4; test: SBE reporter signaling in fibroblasts lacking elements of the TGF-β signaling pathway; type: cell-based
Excerpt: To understand how the TGF-β signaling agonists function and identify molecular genetic targets in cells, fibroblasts lacking different elements of the TGF-β3 signaling pathway, including Smad2, Smad3, and Smad4, were used in combination with plasmids encoding different inhibitors of the TGF-β signaling pathway to study TGF-β agonists in different backgrounds. For reference, the canonical TGF-β signaling pathway is illustrated in FIG. 2A. The biological actions of TGF-β1 are mediated through interactions with the type 2 TGF beta receptor (TBR2) 2 and the type I TGF beta receptor (TBRI) 3. Betaglycan 4 may participate in the binding of TGF-β1. Receptor activation leads to the phosphorylation of Smad proteins, such as Smad 2/3 5 and Smad 4 6, which translocate to the nucleus 7 to bind to the Smad DNA-binding element (SBE) 8, present in numerous genes, in combination with transcription factors (TF) 9. Smad 7 10 is inhibitory with respect to Smad 2/3 5 phosphorylation. Alternative signaling involves p38 11 and the MAP kinase pathway. TAB1 12 activates TAK1 13, which activates p38 11.
Because Smad2 and Smad3 can substitute for each other, results with Smad2 or Smad3 knock-out fibroblasts were more difficult to interpret. Nonetheless, the synergistic effect of TGF-β1 and 11H was blocked in the absence of Smad2 (FIG. 2B) or Smad3 (not shown). In these assays, signaling is reported via SBE elements, which are specific elements that bind Smad proteins. Thus, the 11H compound must signal through this element. Without being limited to theory, it is believed that the 3A compound functions as a competitive agonist of Smad binding to the SBE, representing a novel target and mode of action.

[3] = test system: TGF-β reporter gene in hippocampus; test: Luciferase activity in SBE-luc mouse hippocampus; type: in vivo; conditions: 30 mg/kg i.p.; five hours after injection; SBE-luc mice
Experimental: In another experiment performed to asses the ability of the present compounds to activate TGF-β signaling in animals, SBE-luc mice were given either PBS or the 11H compound via i.p. injections as described in Example 10. Following drug or PBS injection, mice were anesthetized with chloral hydrate and perfused with saline. Brains were dissected and snap-frozen. Hippocampal tissues were assayed for luciferase activity.
(§1) SBE-luc mice (T9-7F), 2-4 months of age, 4-5 mice per group, were given either the 11H compound at 30 mg/kg via i.p. injections, or PBS as a control. The 11H compound was completely dissolved in PBS at the concentration of 3 mg/ml. This working solution was given to mice at 10 μl/g body weight to achieve the desired level of 30 mg/kg. Five hours following drug or PBS injection, mice were anesthetized with chloral hydrate and perfused with saline. Brains were dissected and snap-frozen. Hippocampal tissues were homogenized in 100 μl of 1× luciferase assay buffer and 20 μl of the resulting supernatant was used for luciferase assays.

Dissolution in PBS = type: physicochemical
Experimental: as §1

[4] = test system: primary hippocampal neurons from E16 mouse embryos; type: cell-based; conditions: Aβ oligomers inducing 50-70% cell death; 13A04 3 μM, TGF-β1 10 ng/ml; 24 hours
Experimental: (§2) FIG. 1H is a graph showing the relative amount of surviving 6-7 DIV hippocampal neurons of E16 mice following exposure to culture medium (CM) alone, 13A04 (3 μM), or CM containing Aβ at 2 or 5 μM with TGF-β1 (10 ng/ml) or 13A04 (3 μM). After 24 hours, cultures were fixed and surviving cells were counted. Data represent mean±SEM, n=3-7 fields counted per plate. All conditions were compared to Aβ using the Mann-Whitney test (* p<0.05, ** p<0.01). FIG. 1I is a graph showing the relative gene expression levels of the indicated TGF-β-responsive genes induced in MFB-F11 fibroblasts stimulated with TGF-β1 (yellow) or 13A04 (blue) for 24 h. mRNA was extracted, labeled and hybridized to gene expression arrays tailored for the TGF-β pathway.
Moreover, the small-molecule TGF-β agonist was not toxic at 3 μM and 10 μM (not shown).
Primary mixed neuronal cultures are exposed to Aβ oligomers and treated with compounds (0 to 10 μM concentration) and cell survival is measured using lactate dehydrogenase (LDH) release or by counting 4,6-diamidino-2-phenylindole (DAPI)-stained cells. […] Neuritic dystrophy in 21 DIV neurons can also be measured by quantifying the tortuosity of neurites as described by Ferreira et al.^70 and modified by others. […] Further incubation of these cells with the present compounds provides a sensitive assay for neuroprotection.

[5] = test system: TGF-β-responsive genes in MFB-F11 fibroblasts; test: Microarray of TGF-β pathway gene expression in tgfb1−/− fibroblasts; type: cell-based, mouse; conditions: 1, 5, 24 hours
Experimental: as §2
A microarray assay was used to identify changes in gene expression caused by stimulating tgfb1^−/− fibroblasts with TGF-β1 or 13A04. mRNA was harvested 1, 5, and 24 hours following stimulation of tgfb1^−/− fibroblasts with TGF-β1 (or control) and analyzed for differential expression of 128 genes related to TGF-β signaling, using a commercially available filter array (Superarray Bioscience Corp.; FIG. 1I). […]

[6] = test system: TGF-β signaling (SBE-luc reporter) in brain; test: Bioluminescence and tissue luciferase in SBE-luc reporter mice; type: in vivo, mouse
Excerpt: Transgenic mice harboring the SBE-luc reporter gene were generated and used to test the present compositions in vivo. These “reporter mice” mice express SBE-luc (i.e., “the transgene”) in all cells of the body.^1,54 Intraperitoneal injection of luciferin into SBE-luc mice produces bioluminescence generated by luciferase and photons penetrating the skull can be imaged using sensitive camera systems.^1,54
To determine whether 3A and its analogs are bioactive in vivo and able to penetrate the blood brain barrier (BBB), TGF-β1, 3A, 22B02, or 13A04 were injected into reporter mice i.p. or s.q. The animals were then sacrificed at the indicated times following injection. […] There was no obvious activation of the reporter in other organs.
Bioactivity data were confirmed by biochemical measurements of tissue luciferase in hippocampal homogenates (FIG. 3E).
Two-month old SBE-luciferase transgenic mice receive different concentrations of a test compound either s.q., i.p., or orally by gavage. […] Following administration of the test or control compounds, mice are injected with luciferin i.p. At, e.g., 2, 8, and 16 hours following injection of luciferin, the mice are imaged to detect bioluminescence as described above. Brains may be harvested 16 hours following test compound injection, and may be divided sagittally. […]

[7] = test system: TGF-β signaling in hippocampal neurons; test: RFP immunohistochemistry in SBE-lucRT reporter mice; type: in vivo, mouse
Excerpt: To study TGF-β signaling at the cellular level, additional reporter mice were generated, which express a fusion protein consisting of luciferase, red fluorescent protein […], and thymidine kinase (TK) under control of the SBE promoter (i.e., SBE-lucRT mice).

Aβ deposition = test: APP-T41 mice treated for 10 days, Aβ immunostaining; type: in vivo; conditions: 5-month-old APP-T41 mice, i.p. for 10 days
Experimental: In a further experiment, a group of 5-month-old APP-T41 mice were treated with vehicle or 13A04 (i.p.) for 10 days. At this age, the mice are starting to deposit Aβ which can be quantified in brain sections using Aβ immunostaining.
Transgenic mice that overproduce FAD-mutant human APP reproduce important aspects of AD, including amyloid plaques, neurodegeneration, and cognitive deficits. APP-T41 mice which overexpress APP751^V717I, K670M/N671L in neurons develop amyloid pathology, neurodegeneration, and cognitive deficits.^43,44 Mice overexpressing human tau protein associated with familial forms of fronto-temporal dementia (a dementia characterized by extensive tangle formation) develop neurofibrillary tangles similar to the ones observed in AD and suffer from locomotor deficits around 10 months of age.^45 APP-T41 and Prp-tau^P301L mice^45 can be used to determine the in vivo efficacy of test compounds in treating AD-like diseases.
Compounds can also be tested for their ability to reverse cognitive deficits.

HDAC 1 and 2 = conditions: read-out: 1050 (HDAC 1 and 2 inhibition); cited from earlier work
[8] = test system: TGF-β signaling in the brain; test: SBE-luc mice after lipopolysaccharide (LPS) administration; type: in vivo, mouse
Excerpt: SBE-luc mice can also be used to monitor activation of TGF-β signaling in response to glial activation after lipopolysaccharide (LPS) administration.

[9] = test system: HDAC activity in HeLa nuclear extracts (HDAC 1, HDAC 2, SIRT 1); conditions: FIG. 8B
Excerpt: A commercially available assay was used to measure HDAC inhibitory activity of the present small-molecule compounds.

C/C(=C\c1ccccc1)CN(CC1CCNCC1)C(=O)NC1CCCCC1 [Compound 11H, (E)-3-cyclohexyl-1-(2-methyl-3-phenylallyl)-1-(piperidin-4-ylmethyl)urea]
TGF-β agonist activity ([1]; data of FIGS. 1A-1J): TGF-β-agonists
Synergistic effect with TGF-β1 in the absence of Smad2 or Smad3 ([2]; Smad2 (FIG. 2B) or Smad3 knock-out fibroblasts): blocked
Activation of the TGF-β reporter gene in hippocampi compared to PBS [3]: twice the levels
Concentration completely dissolved in PBS (Dissolution in PBS): ≥ 3000 µg/mL

CC(C)CN(CC(=O)N(CCc1c[nH]c2ccccc12)Cc1ccccc1)C(=O)c1ccco1 [Compound 13A04]
Relative TGF-β activity, fold change compared with vehicle ([1]; 3 μM): 2.5 fold
Relative TGF-β activity, fold change compared with vehicle ([1]; 10 μM): 6.3 fold
Relative TGF-β activity, fold change compared with vehicle ([1]; 30 μM): 17.6 fold
Relative TGF-β activity, fold change compared with vehicle ([1]; 100 μM): 20.9 fold
Protection of neurons against Aβ toxicity (survival) [4]: consistently protected neurons and increased survival
Expression of TGF-β signaling genes (Fos, Jun, Myc, Smad1, Smad2, Smad3, Interleukin-6) [5]: induced
Reporter activation (bioluminescence) in living mice ([6]; i.p. or s.q. injection, FIG. 3D): dose-dependent manner
TGF-β signaling in the vasculature [7]: No activation
Reporter gene and TGF-β signaling in hippocampal neurons ([7]; RFP immunohistochemistry): activates the reporter gene and TGF-β signaling in hippocampal neurons
Tolerability / side effects (Aβ deposition): well tolerated and no side effects were observed
Aβ deposition versus controls (Aβ deposition; not statistically significant): trend towards reduced Aβ deposition

N#Cc1ccc(-c2ccc(OCCCCCCC(=O)NO)cc2)cc1 [Compound A-161906]
IC50 (HDAC 1 and 2): 9 nM

CC(C(=O)O)c1ccc(-c2ccccc2)c(F)c1 (centres unmarked) [flurbiprofen]
TGF-β signaling in the brain after LPS (bioluminescence) ([8]; FIG. 4E): strongly reduced
Microglial activation after LPS ([8]; data not shown): strongly reduced

TGF-β1: recombinant transforming growth factor-β1, reference activator of the TGF-β signaling pathway
Protection of neurons against Aβ toxicity (survival) [4]: consistently protected neurons and increased survival
Expression of TGF-β signaling genes (Fos, Jun, Myc, Smad1, Smad2, Smad3, Interleukin-6) [5]: induced
Signaling in the absence of Smad4 ([2]; Smad4-lacking fibroblasts, FIG. 2D): blocked or strongly inhibited
TGF-β signaling in vivo, tissue luciferase in hippocampal homogenates ([6]; peripheral administration, FIG. 3E, indicates BBB passage): activated TGF-β signaling in vivo

trichostatin A
Reduction of HDAC activity [9]: > 90%
